Tests used:
Type in all cases: in vivo, mouse
interleukin-4 = test: Interleukin-4 in bronchoalveolar lavage fluid (ELISA); details: 30 mg/kg PO, mean±S.E.
Description: (§1) In the present experiment, 6-week-old Balb/c female mice having a body weight of about 20 g in average were used as experimental animals. After 1 week of acclimation, animals showing no abnormal findings on physical examination were used as subjects. 2 mg of aluminium hydroxide (A8222, Sigma, St. Louis, Mo.) and 20 μg of ovalbumin (A5503, Sigma, St. Louis, Mo.) were suspended in 200 μl of phosphate buffer (pH 7.4) and then injected into the peritoneal cavity of mouse for sensitization. On days 21 to 23 after the first intraperitoneal administration of ovalbumin, inhalation challenge was performed for 30 min with 1% ovalbumin using an ultrasonic atomizer. 24 hours after the last antigen administration, airway hyperresponsiveness was measured. 48 hours later, a lethal dose of pentobarbital (Entobal, Hanlim Pharmaceutical Co., Ltd.) was administered, body weight measurement and bronchotomy were performed, and bronchoalveolar lavage was performed with a total 1.2 mL of physiological saline, and then, samples were collected. […] Seven white mice were used for each group. […]
(§2) Briefly, 100 μl of bronchoalveolar lavage fluid was added to a well plate and allowed to react for 1 hour. […] Absorbance was measured at 450 nm.

interleukin-5 = test: Interleukin-5 in bronchoalveolar lavage fluid (ELISA); details: 30 mg/kg PO, mean±S.E.
Description: as §1, §2

ovalbumin-specific IgE = test: Ovalbumin-specific IgE in serum of ovalbumin-sensitized asthma mice (ELISA); details: 30 mg/kg PO, mean±S.E.
Description: (§3) In the present experiment, 6-week-old Balb/c female mice having a body weight of about 20 g in average were used as experimental animals. After 1 week of acclimation, animals showing no abnormal findings on physical examination were used as subjects. 2 mg of aluminium hydroxide (A8222, Sigma, St. Louis, Mo.) and 20 μg of ovalbumin (A5503, Sigma, St. Louis, Mo.) were suspended in 200 μl of phosphate buffer (pH 7.4) and then injected into the peritoneal cavity of mouse for sensitization. On days 21 to 23 after the first intraperitoneal administration of ovalbumin, inhalation challenge was performed for 30 min with 1% ovalbumin using an ultrasonic atomizer. 24 hours after the last antigen administration, airway hyperresponsiveness was measured. 48 hours later, a lethal dose of pentobarbital (Entobal, Hanlim Pharmaceutical Co., Ltd.) was administered, body weight measurement and bronchotomy were performed, and bronchoalveolar lavage was performed with a total 1.2 mL of physiological saline, and then, samples were collected. […] Seven white mice were used for each group.
(§4) To measure serum IgE and ovalbumin-specific IgE, an immunoenzymatic assay was used. IgE level was measured using a commercially available kit (Biolegend Ins., California, USA). […] For color development, 3,3′,5,5′-tetramethylbezidine substrate was allowed to react, and the spectroscopic absorbance was measured at 450 nm.

interleukin-13 = test: Interleukin-13 in bronchoalveolar lavage fluid (ELISA); details: 30 mg/kg PO, mean±S.E.
Description: as §1, §2

[1] = test system: ovalbumin-sensitized asthma animal models; test: Inflammatory cells in bronchoalveolar lavage fluid of ovalbumin-sensitized asthma mice; details: 30 mg/kg PO
Description: as §3

serum IgE = test: Serum IgE in ovalbumin-sensitized asthma mice (immunoenzymatic assay); details: 30 mg/kg PO
Description: as §3, §4

CC(C)(O)c1ccccc1CC[C@@H](SCC1(CC(=O)O)CC1)c1cccc(/C=C/c2ccc3ccc(Cl)cc3n2)c1 [Mon, montelukast]
IL-4 (interleukin-4): 34.6 ± 6.52 pg/mL | IL-5 (interleukin-5): 32.4 ± 4.46 pg/mL | OVA-specific IgE (ovalbumin-specific IgE): 108 ± 83.0 ng/mL | IL-13 (interleukin-13): 65.7 ± 18.86 pg/mL | number of eosinophils in bronchoalveolar lavage fluid ([1]; OVA group (74±16.0)×10^5): 36±20.4 ×10^5 | number of total inflammatory cells in bronchoalveolar lavage fluid ([1]; OVA group (180±22.2)×10^5): 98±19.3 ×10^5 | serum IgE antibody level (serum IgE): 1.8 ± 0.28 µg/mL | IgE (serum IgE; mean±S.E., Table 1): 1.8 ± 0.28 ng/mL

From patent US10413579B2, “Pharmaceutical composition for preventing or treating asthma comprising Pistacia weinmannifolia J. Poiss. ex Franch extract or fraction thereof” (Korea Research Institute of Bioscience and Biotechnology, priority 2013, dated 2019)
